Results: US8389768B2, “Methods and compositions comprising novel cationic lipids” (The University of North Carolina at Chapel Hill, priority 2008, dated 2013)
Read-outs that look alike come from different tables or passages of the source.

Experiments:
[1] = tested on: H460 cells; test: Cellular growth inhibition study (MTT assay)
Description: (§1) The cell viability values shown are the averages of triplicate experiments performed on the same day. […] Data=mean, n=3.
H460 cells (1×10^4 per well) were seeded into 12-well plates. Cells were treated with different lipids at various concentrations in serum-containing medium at 37° C. for 72 h. Cell viability was then detected by an MTT assay. Briefly, 100 μL of the MTT solution (15 mg in 50 mL of PBS) was added to each well, and the cells were incubated for 4 h at 37° C. The medium was removed, and the formazan crystals formed in the cells were dissolved in DMSO. Absorbance at 570 nm was measured in an Ultramark Microplate Imaging System. The data are expressed as the percent of viable cells compared to the untreated control cells.
(§2) The cytotoxic effects of the three novel lipids at various concentrations were assessed in H460 cells after exposure to lipids 1-3 and DOTAP for 48 h using the MTT assay (FIG. 5A). […] To assess the chemo-sensitization ability of these lipids to anticancer drugs such as cisplatin, H460 cells were exposed to each of these agents for 48 h, alone and in combination with cisplatin.

[2] = tested on: H460 cells; test: In vitro transfection (pCMV-Luc luciferase reporter gene delivery); type: cell-based, human; conditions: presence of serum, cholesterol co-lipid 1:1, pCMV-Luc, lipid/DNA charge ratios 8:1 to 1:1
Description: RLU/pgram of protein was plotted against the lipid to DNA (+/−) charge ratios. The transfection efficiencies of the lipids were compared to that of commercially available N-(2,3-dioleoyloxy) propyl)-N,N,N-trimethylammonium chloride (DOTAP) and Lipofectamine™ 2000. The transfection values shown are the average of triplicate experiments performed on the same day.
H460 human large-cell lung carcinoma cells were seeded at a density of 20,000 cells per well in a 96-well plate 18-24 h prior to the transfection. Plasmid DNA (0.3 μg) was complexed with varying amounts of lipids (0.9-7.2 nmol) in plain RPMI medium (total volume of 100 μL) for 20 min. The charge ratios were varied from 1:1 to 8:1 (+/−) over these ranges of the lipids. The complexes were then added to the cells. After 3 h of incubation, 100 μL of RPMI with 20% FBS was added to the cells. The reporter gene activity was estimated after 24 h. The cells were washed twice with phosphate-buffered saline (PBS, 100 μL each) and lysed in 100 μL of lysis buffer (0.1 M Tris-HCl, 2 mM EDTA, 0.5% Triton X100, pH 7.8). Care was taken to ensure complete lysis. The cell lysate was then centrifuged at 14,000 rpm for 5 min. […] The protein concentration within the cellular lysates was quantified with the BSA standards from the Micro BSA™ Protein assay kit as supplied by Pierce Chemical Company (Rockford, Ill.). […]

[3] = tested on: H460 cells; test: Flow cytometry with PI staining (apoptosis rate) after free lipid; type: cell-based, human; conditions: 10 μM lipid, 3 h
Description: There was no statistically significant difference between the cytotoxicities of DSGLA and lipid 1.

[4] = tested on: ERK1/2; test: ERK1/2 activation in dendritic cells; type: cell-based; conditions: low concentration (1 μM)
Description: Total ERK1/2 expression remained unperturbed under all conditions.

[5] = tested on: H460 cells; test: Chemosensitization study with cisplatin (MTT assay); type: cell-based, human; conditions: 48 h
Description: as §1
H460 cells (1×10^4 per well) were seeded into 12-well plates. Cells were incubated with different lipids at 10 μM and cisplatin (Sigma-Aldrich, St. Louis, Mo.) at different concentrations in serum-containing medium at 37° C. Cell viability was detected by the MTT assay 48 h later.
as §2

[6] = tested on: B16F10 cells (that stably express luciferase); test: In vitro luciferase gene silencing; type: cell-based; conditions: 24 h, 37° C., lipid as cationic lipid of the LPD formulation, vs DOTAP and DSGLA, AA vs no AA
Description: We examined the gene silencing effect by siRNA in different compositions. […] Furthermore, the silencing effect in the cells treated with LPD-PEG-AA was much stronger than that of cells treated with LPD-PEG.

[7] = tested on: B16F10 melanoma cells; test: Intracellular uptake of fluorescently-labeled siRNA in B16F10 cells; type: cell-based; conditions: 4 h, CY3-siRNA, lipid as cationic lipid of LPD-PEG / LPD-PEG-AA, vs DOTAP, AA vs no AA
Description: FIG. 9 presents fluorescence photographs of B16F10 cells after a 4 h treatment with 3′ CY3-labeled siRNA against an irrelevant target in LPD-PEG or LPD-PEG-AA nanoparticles formulated with the cationic lipid DSAA, DSGLA, or DOTAP.
We post inserted PEGylated lipids onto a LPD formulation, a nonviral vector developed in our lab as a nanocarrier for siRNA delivery, to increase the serum stability. In addition, we also tethered anisamide, a compound that specifically binds to the sigma receptor, to the distal end of PEG as a targeting ligand. […] Furthermore, the fluorescence signal in the cells treated with LPD-PEG-AA was much stronger than that of cells treated with LPD-PEG.

Q: Which results are given for “N,N-dimyristoyl-N-methyl-N-2[N′—(N2, N6-di-guanidino-L-lysinyl)]aminoethyl ammonium chloride [lipid 3]”?
A: order of cytotoxicity ([1]; 20 μM concentration of the corresponding lipids): lipid 1>lipid 3>lipid 2>DOTAP; transfection efficiency (luciferase activity, RLU per μg protein) [2]: comparable to that of DOTAP and Lipofectamine 2000

Q: How did the EC50 [1] turn out when “N,N-di-myristoyl-N-methyl-N-2[N′—(N^6-guanidino-L-lysinyl)]aminoethyl ammonium chloride [lipid 1]” was run?
A: Its EC50 is about 16 µM.

Q: What about the “transfection efficiency (luciferase activity, RLU per μg protein)” value [2] of the same molecule?
A: Its value is “comparable to that of DOTAP and Lipofectamine 2000”.

Q: And the “apoptosis rate (flow cytometry with PI staining)” value [3]?
A: Its value is 10.4±3.0%.

Q: `CCCCCCCC/C=C\CCCCCCCC(=O)OCC(C[N+](C)(C)C)OC(=O)CCCCCCC/C=C\CCCCCCCC.[Cl-]` (stereo not drawn) [DOTAP] was tested. Which ERK1/2 activation [4] did it give?
A: Its ERK1/2 activation is “increased ERK1/2 activation”.

Q: What about the “apoptosis rate (flow cytometry with PI staining)” value [3] of the same molecule?
A: Its value is 4.7±0.5%.

Q: And the “sensitization of cells to cisplatin” value ([5]; lipid 10 μM)?
A: Its value is “not”.

Q: Which IC50 ([5]; cisplatin alone, read-out: IC50 of cisplatin) does the source give for `N.N.[Cl][Pt][Cl]` [cisplatin] here?
A: Its IC50 is about 12 µM.

Q: What about the IC50 ([5]; with lipids 1-3 (10 μM), read-out: IC50 of cisplatin after treatment with lipids 1-3) of the same molecule?
A: The IC50 was 3.5 µM.

Q: For `CCCCCCCCCCCCCCCCCC[N+](C)(CCCCCCCCCCCCCCCCCC)CCNC(=O)[C@@H](N)CCCNC(=N)N` [DSAA, N-methyl-N-(2-(arginoylamino)ethyl)-N,N-Dioctadecyl aminium chloride], which “silencing effect of anti-luciferase siRNA” value [6] is on record?
A: Its value is “greater”.

Q: And the “uptake of fluorescently-labeled siRNA (fluorescence photographs)” value [7]?
A: The value was “much greater”.
